Where no end group is shown, it is not given here.
Assays:
LOVO = assay: Uptake of SA-HRP::MBD peptide complexes; type: cell-based, human; conditions: for SA-HRP uptake, Cyt.: cytoplasmic; for SA-HRP uptake, Nuc.: nuclear
Description: (§1) HEK293 kidney cell line and 54 tumor cell lines obtained from the National Cancer Institute and passaged in RPMI1640 cell culture medium supplemented with 10% fetal bovine serum and 10 uM FeCl2. Uptake of streptavidin-horseradish peroxidase (SA-HRP) conjugate and of various SA-HRP::MBD peptide complexes was determined as described (Singh et al. J Biol Chem. 279 (1):477-87 [2004]) using biotinylated MBD9 ([…]) (SEQ ID NO: 10) and MBD21 ([…]) (SEQ ID NO: 4) peptides and SA-HRP. Nuclear and cytoplasmic localization of these proteins was also determined in each case. […] In order to establish the underlying molecular mechanism for this variability, we cross-linked MBD21 peptide to the following cell surface markers at 4 degrees Celsius as previously described (Singh et al. J Biol Chem. 279 (1):477-87 [2004]): transferrin receptor 1, caveolin 1, PCNA, integrins alpha v, 2, 5 and 6, integrins beta 1, 3 and 5. […] Based on the strength of these correlations, it was possible to derive crude predictive formulae for MBD-mediated uptake based on the rate of cross-linking to surface markers. Such predictive formulas could form the basis for a diagnostic procedure to select appropriate targets for MBD-based therapies.

TK-10 = assay: Uptake of SA-HRP::MBD peptide complexes; type: cell-based, human; conditions: for SA-HRP uptake, Cyt.: TK-10, cytoplasmic; for SA-HRP uptake, Nuc.: TK-10, nuclear
Description: as §1

MX-1 = assay: Uptake of SA-HRP::MBD peptide complexes; type: cell-based, human; conditions: for SA-HRP uptake, Cyt.: MX-1, cytoplasmic; for SA-HRP uptake, Nuc.: MX-1, nuclear
Description: as §1

HS-578T = assay: Uptake of SA-HRP::MBD peptide complexes; type: cell-based, human; conditions: for SA-HRP uptake, Cyt.: cytoplasmic; for SA-HRP uptake, Nuc.: nuclear
Description: as §1

ACHN = assay: Uptake of SA-HRP::MBD peptide complexes; type: cell-based, human; conditions: for SA-HRP uptake, Cyt.: cytoplasmic; for SA-HRP uptake, Nuc.: nuclear
Description: as §1

SK-0V-3 = assay: Uptake of SA-HRP::MBD peptide complexes; type: cell-based, human; conditions: for SA-HRP uptake, Cyt.: SK-0V-3, cytoplasmic; for SA-HRP uptake, Nuc.: SK-0V-3, nuclear
Description: as §1

NCI-H226 = assay: Uptake of SA-HRP::MBD peptide complexes; type: cell-based, human; conditions: for SA-HRP uptake, Cyt.: NCI-H226, cytoplasmic; for SA-HRP uptake, Nuc.: NCI-H226, nuclear
Description: as §1

MOLT4 = assay: Uptake of SA-HRP::MBD peptide complexes; type: cell-based, human; conditions: for SA-HRP uptake, Cyt.: MOLT4, cytoplasmic; for SA-HRP uptake, Nuc.: MOLT4, nuclear
Description: as §1

CAKI-1 = assay: Uptake of SA-HRP::MBD peptide complexes; type: cell-based, human; conditions: for SA-HRP uptake, Cyt.: CAKI-1, cytoplasmic; for SA-HRP uptake, Nuc.: CAKI-1, nuclear
Description: as §1

NHI-H322M = assay: Uptake of SA-HRP::MBD peptide complexes; type: cell-based, human; conditions: for SA-HRP uptake, Cyt.: cytoplasmic; for SA-HRP uptake, Nuc.: nuclear
Description: as §1

231 = assay: Uptake of SA-HRP::MBD peptide complexes; type: cell-based, human; conditions: for SA-HRP uptake, Cyt.: 231, cytoplasmic; for SA-HRP uptake, Nuc.: 231, nuclear
Description: as §1

CHA-59 = assay: Uptake of SA-HRP::MBD peptide complexes; type: cell-based, human; conditions: for SA-HRP uptake, Cyt.: CHA-59, cytoplasmic; for SA-HRP uptake, Nuc.: CHA-59, nuclear
Description: as §1

OVCAR-4 = assay: Uptake of SA-HRP::MBD peptide complexes; type: cell-based, human; conditions: for SA-HRP uptake, Cyt.: OVCAR-4, cytoplasmic; for SA-HRP uptake, Nuc.: OVCAR-4, nuclear
Description: as §1

A498 = assay: Uptake of SA-HRP::MBD peptide complexes; type: cell-based, human; conditions: for SA-HRP uptake, Cyt.: A498, cytoplasmic; for SA-HRP uptake, Nuc.: A498, nuclear
Description: as §1

MCF 7 = assay: Uptake of SA-HRP::MBD peptide complexes; type: cell-based, human; conditions: for SA-HRP uptake, Cyt.: MCF 7, cytoplasmic; for SA-HRP uptake, Nuc.: MCF 7, nuclear
Description: as §1

HCT-116 = assay: Uptake of SA-HRP::MBD peptide complexes; type: cell-based, human; conditions: for SA-HRP uptake, Cyt.: HCT-116, cytoplasmic; for SA-HRP uptake, Nuc.: HCT-116, nuclear
Description: as §1

COLON 26 = assay: Uptake of SA-HRP::MBD peptide complexes; type: cell-based; conditions: for SA-HRP uptake, Cyt.: COLON 26, cytoplasmic; for SA-HRP uptake, Nuc.: COLON 26, nuclear
Description: as §1

SR = assay: Uptake of SA-HRP::MBD peptide complexes; type: cell-based; conditions: for SA-HRP uptake, Cyt.: cytoplasmic; for SA-HRP uptake, Nuc.: nuclear
Description: as §1

435 = assay: Uptake of SA-HRP::MBD peptide complexes; type: cell-based; conditions: for SA-HRP uptake, Cyt.: 435, cytoplasmic; for SA-HRP uptake, Nuc.: 435, nuclear
Description: as §1

PAN 02 = assay: Uptake of SA-HRP::MBD peptide complexes; type: cell-based; conditions: for SA-HRP uptake, Cyt.: PAN 02, cytoplasmic; for SA-HRP uptake, Nuc.: PAN 02, nuclear
Description: as §1

HEK 293 = assay: Uptake of SA-HRP::MBD peptide complexes; type: cell-based; conditions: for SA-HRP uptake, Cyt.: HEK 293, cytoplasmic; for SA-HRP uptake, Nuc.: HEK 293, nuclear
Description: as §1

CCRF-SB = assay: Uptake of SA-HRP::MBD peptide complexes; type: cell-based; conditions: for SA-HRP uptake, Cyt.: cytoplasmic; for SA-HRP uptake, Nuc.: nuclear
Description: as §1

K562 = assay: Uptake of SA-HRP::MBD peptide complexes; type: cell-based; conditions: for SA-HRP uptake, Cyt.: K562, cytoplasmic; for SA-HRP uptake, Nuc.: K562, nuclear
Description: as §1

54 tumor cell lines = assay: Uptake of SA-HRP::MBD peptide complexes, median of the survey; type: cell-based; conditions: median over tumor cell lines; for SA-HRP uptake, Cyt. (ng), Median: cytoplasmic; for SA-HRP uptake, Nuc. (ng), Median: nuclear
Description: as §1

KKGFYKKKQCRPSKGRKRGFCWAVDKYG (cysteine pairing not given here; also: biotinylated (position not given here), complexed with SA-HRP) [MBD21]
SA-HRP uptake, Cyt. (LOVO): 8.7 ng | SA-HRP uptake, Nuc. (LOVO): 3.8 ng | SA-HRP uptake, Cyt. (TK-10): 5.0 ng | SA-HRP uptake, Nuc. (TK-10): 2.2 ng | SA-HRP uptake, Cyt. (MX-1): 8.5 ng | SA-HRP uptake, Nuc. (MX-1): 3.8 ng | SA-HRP uptake, Cyt. (HS-578T): 2.8 ng | SA-HRP uptake, Nuc. (HS-578T): 2.3 ng | SA-HRP uptake, Cyt. (ACHN): 8.0 ng | SA-HRP uptake, Nuc. (ACHN): 3.1 ng | SA-HRP uptake, Cyt. (SK-0V-3): <0.04 ng | SA-HRP uptake, Nuc. (SK-0V-3): <0.04 ng | SA-HRP uptake, Cyt. (NCI-H226): 0.7 ng | SA-HRP uptake, Nuc. (NCI-H226): 0.9 ng | SA-HRP uptake, Cyt. (MOLT4): 7.3 ng | SA-HRP uptake, Nuc. (MOLT4): 0.0 ng | SA-HRP uptake, Cyt. (CAKI-1): 2.8 ng | SA-HRP uptake, Nuc. (CAKI-1): 1.0 ng | SA-HRP uptake, Cyt. (NHI-H322M): 6.0 ng | SA-HRP uptake, Nuc. (NHI-H322M): 8.3 ng | SA-HRP uptake, Cyt. 231: 3.4 ng | SA-HRP uptake, Nuc. 231: 1.1 ng | SA-HRP uptake, Cyt. (CHA-59): 8.2 ng | SA-HRP uptake, Nuc. (CHA-59): 2.1 ng | SA-HRP uptake, Cyt. (OVCAR-4): 6.1 ng | SA-HRP uptake, Nuc. (OVCAR-4): 1.3 ng | SA-HRP uptake, Cyt. (A498): 35.3 ng | SA-HRP uptake, Nuc. (A498): 33.4 ng | SA-HRP uptake, Cyt. (MCF 7): 11.1 ng | SA-HRP uptake, Nuc. (MCF 7): 5.8 ng | SA-HRP uptake, Cyt. (HCT-116): 12.4 ng | SA-HRP uptake, Nuc. (HCT-116): 9.5 ng | SA-HRP uptake, Cyt. (COLON 26): 8.9 ng | SA-HRP uptake, Nuc. (COLON 26): 2.2 ng | SA-HRP uptake, Cyt. (SR): 20.9 ng | SA-HRP uptake, Nuc. (SR): 0.0 ng | SA-HRP uptake, Cyt. 435: 6.1 ng | SA-HRP uptake, Nuc. 435: 1.3 ng | SA-HRP uptake, Cyt. (PAN 02): 9.3 ng | SA-HRP uptake, Nuc. (PAN 02): 2.2 ng | SA-HRP uptake, Cyt. (HEK 293): 13.6 ng | SA-HRP uptake, Nuc. (HEK 293): 4.5 ng | SA-HRP uptake, Cyt. (CCRF-SB): 1.7 ng | SA-HRP uptake, Nuc. (CCRF-SB): 0.1 ng | SA-HRP uptake, Cyt. (K562): 2.8 ng | SA-HRP uptake, Nuc. (K562): 1.1 ng | SA-HRP uptake, Cyt. (ng), Median (54 tumor cell lines): 2.8 ng | SA-HRP uptake, Nuc. (ng), Median (54 tumor cell lines): 1.0 ng

KKGFYKKKKQCRPSKGRKRGFCWNGRK [MBD9]
SA-HRP uptake, Cyt. (LOVO): 12.6 ng | SA-HRP uptake, Nuc. (LOVO): 5.4 ng | SA-HRP uptake, Cyt. (TK-10): 4.0 ng | SA-HRP uptake, Nuc. (TK-10): 1.3 ng | SA-HRP uptake, Cyt. (MX-1): 10.8 ng | SA-HRP uptake, Nuc. (MX-1): 3.1 ng | SA-HRP uptake, Cyt. (HS-578T): 6.8 ng | SA-HRP uptake, Nuc. (HS-578T): 2.3 ng | SA-HRP uptake, Cyt. (ACHN): 9.6 ng | SA-HRP uptake, Nuc. (ACHN): 2.9 ng | SA-HRP uptake, Cyt. (SK-0V-3): 2.0 ng | SA-HRP uptake, Nuc. (SK-0V-3): 0.4 ng | SA-HRP uptake, Cyt. (NCI-H226): 2.6 ng | SA-HRP uptake, Nuc. (NCI-H226): 1.8 ng | SA-HRP uptake, Cyt. (MOLT4): 12.7 ng | SA-HRP uptake, Nuc. (MOLT4): 0.0 ng | SA-HRP uptake, Cyt. (CAKI-1): 7.4 ng | SA-HRP uptake, Nuc. (CAKI-1): 1.8 ng | SA-HRP uptake, Cyt. (NHI-H322M): 5.2 ng | SA-HRP uptake, Nuc. (NHI-H322M): 5.0 ng | SA-HRP uptake, Cyt. 231: 9.6 ng | SA-HRP uptake, Nuc. 231: 2.6 ng | SA-HRP uptake, Cyt. (CHA-59): 24.7 ng | SA-HRP uptake, Nuc. (CHA-59): 9.7 ng | SA-HRP uptake, Cyt. (OVCAR-4): 9.9 ng | SA-HRP uptake, Nuc. (OVCAR-4): 2.7 ng | SA-HRP uptake, Cyt. (A498): 28.5 ng | SA-HRP uptake, Nuc. (A498): 12.4 ng | SA-HRP uptake, Cyt. (MCF 7): 26.7 ng | SA-HRP uptake, Nuc. (MCF 7): 19.8 ng | SA-HRP uptake, Cyt. (HCT-116): 14.1 ng | SA-HRP uptake, Nuc. (HCT-116): 4.4 ng | SA-HRP uptake, Cyt. (COLON 26): 11.3 ng | SA-HRP uptake, Nuc. (COLON 26): 2.3 ng | SA-HRP uptake, Cyt. (SR): 24.4 ng | SA-HRP uptake, Nuc. (SR): 0.0 ng | SA-HRP uptake, Cyt. 435: 8.6 ng | SA-HRP uptake, Nuc. 435: 2.7 ng | SA-HRP uptake, Cyt. (PAN 02): 25.8 ng | SA-HRP uptake, Nuc. (PAN 02): 7.0 ng | SA-HRP uptake, Cyt. (HEK 293): 20.2 ng | SA-HRP uptake, Nuc. (HEK 293): 20.1 ng | SA-HRP uptake, Cyt. (CCRF-SB): 2.6 ng | SA-HRP uptake, Nuc. (CCRF-SB): 0.6 ng | SA-HRP uptake, Cyt. (K562): 2.6 ng | SA-HRP uptake, Nuc. (K562): 1.3 ng | SA-HRP uptake, Cyt. (ng), Median (54 tumor cell lines): 7.4 ng | SA-HRP uptake, Nuc. (ng), Median (54 tumor cell lines): 1.8 ng

Source: patent US7618816B2, “Metal-binding therapeutic peptides” (Ontherix, Inc., priority 2005, dated 2009)
